System: cigarette smoke-induced influx of neutrophilic granulocytes into the lung tissue
Assay: Test 1: Inhibition of the smoke-induced accumulation of granulocytes in the lung tissue (MPO activity)
Type: in vivo, rats (Sprague-Dawley)
Details: for ID50 (dosage which led to a 50% inhibition of the MPO activity): male Sprague-Dawley rats, 5 days smoke from 8 cigarettes per day, intratracheal dose 30 min before exposure, lung tissue MPO, linear regression
Description: • A=4-[(R)-(1-phenyl-ethyl)amino]-6-{[4-((R)-6-methyl-2-oxo-morpholin-4-yl)-1-oxo-2-buten-1-yl]amino}-7-methoxy-quinazoline, • B=4-[(3-chloro-4-fluorophenyl)amino]-6-({4-[N,N-bis-(2-methoxy-ethyl)-amino]-1-oxo-2-buten-1-yl}amino)-7-[(tetrahydrofuran-2-yl)methoxy]-quinazoline, • C=4-[(3-chloro-4-fluoro-phenyl)amino]-6-[2-(2,2-dimethyl-6-oxo-morpholin-4-yl)-ethoxy]-7-methoxy-quinazoline, • D=4-[(3-chloro-4-fluoro-phenyl)amino]-6-[2-(2,2-dimethyl-6-oxo-morpholin-4-yl)-ethoxy]-7-[(R)-(tetrahydrofuran-2-yl)methoxy]-quinazoline and • E=4-[(3-chloro-4-fluoro-phenyl)amino]-7-[2-(2,2-dimethyl-6-oxo-morpholin-4-yl)-ethoxy]-6-[(S)-(tetrahydrofuran-2-yl)methoxy]-quinazoline were tested as follows to investigate their anti-inflammatory activity: Test 1: Inhibition of the Smoke-Induced Accumulation of Granulocytes in the Lung Tissue Lung indications: Inhibition of the cigarette smoke-induced influx of neutrophilic granulocytes into the lung tissue by the EGF-receptor kinase inhibitor 4-[(R)-(1-phenyl-ethyl)amino]-6-{[4-((R)-6-methyl-2-oxo-morpholin-4-yl)-1-oxo-2-buten-1-yl]amino}-7-methoxy-quinazoline (compound A). Male rats (strain: Sprague-Dawley) weighing from 250-300 g were exposed for 5 days to the smoke from 8 cigarettes per day. The animals in the group treated with compound A, anaesthetised with isofluran, were given an intratracheal dose of 0.03 or 0.1 mg/kg of compound A in a volume of 0.05 ml each day 30 min before the start of the exposure to smoke. On the last day of the test the animals were killed 4 hours after the last exposure to smoke and the lung tissue was removed. A sample of 70-200 mg was taken from each lung and placed in a test tube prepared with 1 ml of 0.5% hexadecyltrimethylammonium bromide. The samples were homogenised for 15 sec using an Ultraturrax. The homogenised samples were centrifuged at 15700 g in an Eppendorf bench centrifuge for 5 min at ambient temperature. […] of the supernatant was removed and mixed with […] of phosphate buffer (50 mmol/l) containing 0.197 mg/ml of O-dianisidine dihydrochloride. After 10 minutes' incubation at ambient temperature the absorption was measured with a spectral photometer at a wavelength of 450 nm. The dosage which led to a 50% inhibition of the MPO activity (═ID50) was determined by linear regression.

With `COc1cc2ncnc(N[C@H](C)c3ccccc3)c2cc1NC(=O)C=CCN1CC(=O)O[C@H](C)C1` [A, 4-[(R)-(1-phenyl-ethyl)amino]-6-{[4-((R)-6-methyl-2-oxo-morpholin-4-yl)-1-oxo-2-buten-1-yl]amino}-7-methoxy-quinazoline] the “ID50 (dosage which led to a 50% inhibition of the MPO activity)” value was 0.3 mg/kg and the “inhibition of the smoke-induced accumulation of granulocytes (myeloperoxidase content of lung tissue)” value (rats, intratracheal 0.03 or 0.1 mg/kg daily for 5 days, 30 min before smoke exposure) was “significant (p<0.005) inhibition”.
In the case of `COCCN(CC=CC(=O)Nc1cc2c(Nc3ccc(F)c(Cl)c3)ncnc2cc1OCC1CCCO1)CCOC` (stereo not drawn) [B, 4-[(3-chloro-4-fluorophenyl)amino]-6-({4-[N,N-bis-(2-methoxy-ethyl)-amino]-1-oxo-2-buten-1-yl}amino)-7-[(tetrahydrofuran-2-yl)methoxy]-quinazoline], the “ID50 (dosage which led to a 50% inhibition of the MPO activity)” value is reported as 0.2 mg/kg.
`COc1cc2ncnc(Nc3ccc(F)c(Cl)c3)c2cc1OCCN1CC(=O)OC(C)(C)C1` [C, 4-[(3-chloro-4-fluoro-phenyl)amino]-6-[2-(2,2-dimethyl-6-oxo-morpholin-4-yl)-ethoxy]-7-methoxy-quinazoline] was tested, and the “ID50 (dosage which led to a 50% inhibition of the MPO activity)” value was 1 mg/kg.
In the case of `CC1(C)CN(CCOc2cc3c(Nc4ccc(F)c(Cl)c4)ncnc3cc2OC[C@H]2CCCO2)CC(=O)O1` [D, 4-[(3-chloro-4-fluoro-phenyl)amino]-6-[2-(2,2-dimethyl-6-oxo-morpholin-4-yl)-ethoxy]-7-[(R)-(tetrahydrofuran-2-yl)methoxy]-quinazoline], the “ID50 (dosage which led to a 50% inhibition of the MPO activity)” value is reported as 1.1 mg/kg.
In the case of `CC1(C)CN(CCOc2cc3ncnc(Nc4ccc(F)c(Cl)c4)c3cc2OC[C@@H]2CCCO2)CC(=O)O1` [E, 4-[(3-chloro-4-fluoro-phenyl)amino]-7-[2-(2,2-dimethyl-6-oxo-morpholin-4-yl)-ethoxy]-6-[(S)-(tetrahydrofuran-2-yl)methoxy]-quinazoline], the “ID50 (dosage which led to a 50% inhibition of the MPO activity)” value is reported as 0.4 mg/kg.

— US20050059661A1, “Use of tyrosine kinase inhibitors for the treatment of inflammatory processes” (Boehringer Ingelheim International GmbH, priority 2003, published 2005)
